These are literature values, as cited in patent US11207302B2, “1,2,5-oxadiazoles as inhibitors of indoleamine 2,3-dioxygenase” (Incyte Corporation, priority 2008, dated 2021).

For one data set, the system named is LLC tumors. As to conditions: LLC tumors in C57Bl/6 mice, versus placebo.
For a further data set, the system named is P815 tumor. As to conditions: pre-immunized immune-competent mice challenged with murine tumor cells.

As for `Cn1cc(C[C@H](N)C(=O)O)c2ccccc21` [Example 1-MT, 1-methyl-tryptophan], the formation of tumors entry in the data set with LLC tumors was “markedly delayed”. Moreover, the growth of tumors entry with P815 tumor was “inhibited”.
